# Laboratory results reported in patent publication US20220090217A1, “BIOMARKERS AND USES THEREOF IN THE TREATMENT OF CHRONIC HBV INFECTION” (Janssen Sciences Ireland Unlimited Company, priority 2020, published 2022).
# Test system: chronic hepatitis B (CHB) patients
# Experiment: Onset of clinical relapse after stop of NA treatment (Cox proportional hazard regression)
# Format: in vivo, human
# Conditions: entecavir compared to tenofovir; among the 110 clinical relapsers
# From the text: Patients and Study Design: In this multi-center prospective study in Taiwan, 242 CHB patients were enrolled while in their last half year of a minimum 3-year treatment regimen with direct antivirals. Of them, 47 were excluded due to protocol violation, screening failure, lost to follow-up, withdrawal by the subject, use of immune related therapy, or on-treatment clinical relapse. An additional 14 were excluded as the analysis required patients to be hepatitis B e-antigen (HBeAg) negative, hepatitis virus (HBV) DNA <60 IU/mL, and alanine transaminase (ALT) <80 U/L at the last on-treatment visit, leaving […] patients eligible for analysis. […] Cumulative incidence of virological and clinical relapse after stop of treatment was assessed by Kaplan-Meier curves (FIGS. 1A and 1B). […] Statistical Analysis of HLA Data: The association between the HLA alleles (at two and four digits resolution for each locus) and diversity (genetic homozygosity and HED score, independently) and onset of relapse was assessed using a Cox model (Harrell et al., JAMA: The Journal of the American Medical Association, 1982, 247: 2543) including HBsAg level at the last visit on treatment (high (≥100 IU/mL) vs. low (<100 IU/mL)) and the antiviral treatment at enrolment (tenofovir vs. entecavir) as main effects. […]
compound,measurement,value
C=C1[C@H](CO)[C@@H](O)C[C@@H]1n1cnc2c(=O)[nH]c(N)nc21 [entecavir],"onset of clinical relapse later after stopping treatment, on average",100 days
